Among the test systems are BT-549 breast; CAKI-1 renal; DU-145 prostate; HT29 colon; KM12 colon; MALME-3M melanoma; NCI-H23 lung; OVCAR-8 ovarian; RPMI-8226 leukemia; RXF 393 renal; SK-MEL-2 melanoma; SNB-75 CNS; TK-10 renal; UACC-257 melanoma; EKVX NSCLC; HL-60(TB) leukemia; MOLT-4 leukemia; NCI-H460 lung; HS 578T breast.
Holding throughout (assay): NCI anticancer screen, dose series, 48 h

The structures appear in SMILES notation.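 Dose response: 5 concentrations. Exposure: 48 h. Format: 96-well plates. Endpoint: linear interpolation; highest concentration if not reached. TGI is the concentration that stops growth completely.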 Where only a bound is given, the exact number is not on record here.

With `NC(=O)OCc1c(-c2ccccc2)nn(-c2ccccc2)c1COC(N)=O`, the TGI in the assay with BT-549 breast, with CAKI-1 renal, in the assay on DU-145 prostate, with HT29 colon, in the assay on KM12 colon and in the assay with MALME-3M melanoma was more than 100 µM throughout. Moreover, the TGI in the assay on NCI-H23 lung, with OVCAR-8 ovarian, in the assay with RPMI-8226 leukemia, in the assay with RXF 393 renal, in the assay with SK-MEL-2 melanoma and with SNB-75 CNS was more than 100 µM each time. Besides, the TGI with TK-10 renal and in the assay on UACC-257 melanoma was more than 100 µM throughout.
As to `COc1ccc(C(c2ccc3c(c2)OCO3)N2C(=O)CCC2C(=O)O)cc1` (configuration not stated), the TGI in the assay with BT-549 breast, with CAKI-1 renal, in the assay with DU-145 prostate, in the assay with EKVX NSCLC, in the assay on HL-60(TB) leukemia and with HT29 colon was more than 100 µM in each case. Besides, the TGI with KM12 colon, in the assay on MALME-3M melanoma, in the assay with MOLT-4 leukemia, in the assay on NCI-H23 lung, with NCI-H460 lung and with OVCAR-8 ovarian was more than 100 µM each time. Moreover, the TGI with RPMI-8226 leukemia, with SK-MEL-2 melanoma, in the assay on SNB-75 CNS, with TK-10 renal and in the assay on UACC-257 melanoma was more than 100 µM throughout.
For `Cn1c(=O)n2n(c1=O)[C@@H](c1ccccc1)[C@H]2c1ccccc1`, the TGI in the assay on BT-549 breast, in the assay with CAKI-1 renal, with EKVX NSCLC, with HL-60(TB) leukemia, in the assay with HS 578T breast and in the assay with HT29 colon was more than 100 µM in each case. Besides, the TGI in the assay with KM12 colon, with MALME-3M melanoma, in the assay on MOLT-4 leukemia, in the assay on NCI-H23 lung, with NCI-H460 lung and in the assay on OVCAR-8 ovarian was more than 100 µM throughout. For the same compound, the TGI with RXF 393 renal, with SK-MEL-2 melanoma, in the assay with SNB-75 CNS, in the assay on TK-10 renal and with UACC-257 melanoma was more than 100 µM each time.
For the compound `COc1ccc(C(SCC(N)C(=O)O)(c2ccc(OC)cc2)c2ccc(OC)cc2)cc1` (configuration not stated), the TGI was 28 µM in the assay with BT-549 breast; more than 31.6 µM in the assay with CAKI-1 renal; 21.9 µM with EKVX NSCLC; more than 31.6 µM with HL-60(TB) leukemia; 19.5 µM with HS 578T breast; 16.7 µM with HT29 colon. Also, the TGI in the assay on KM12 colon was found to be 16.2 µM; with MALME-3M melanoma it was 16 µM; in the assay on MOLT-4 leukemia, 24 µM; in the assay on NCI-H23 lung it was 20.6 µM; in the assay with NCI-H460 lung, 17.3 µM; in the assay with OVCAR-8 ovarian, 18 µM. Also, the TGI in the assay on RPMI-8226 leukemia is more than 31.6 µM; in the assay on RXF 393 renal, 15.6 µM; in the assay with SK-MEL-2 melanoma, 18.4 µM; in the assay with SNB-75 CNS, 19.4 µM; in the assay on TK-10 renal, 25.6 µM; with UACC-257 melanoma, 17.3 µM.
In the case of `c1cc(NC2=NCCO2)c2c(c1)OCO2`, the TGI in the assay with CAKI-1 renal, in the assay with DU-145 prostate, in the assay on EKVX NSCLC, in the assay with HL-60(TB) leukemia, with HS 578T breast and in the assay on HT29 colon was more than 100 µM in each case. Further, the TGI with KM12 colon, in the assay on MALME-3M melanoma, in the assay on MOLT-4 leukemia, with NCI-H23 lung, in the assay on NCI-H460 lung and in the assay on OVCAR-8 ovarian was more than 100 µM each time. For the same compound, the TGI in the assay with RPMI-8226 leukemia, in the assay with RXF 393 renal, with SK-MEL-2 melanoma and in the assay on UACC-257 melanoma was more than 100 µM in each case.
Consider `O=C1C=C2CC[C@H]3[C@@H]4CC[C@H](OC(=O)c5cccc6cc7ccccc7nc56)[C@H]4CC[C@@H]3[C@H]2CC1`, for which the TGI in the assay on BT-549 breast, in the assay with DU-145 prostate, in the assay with EKVX NSCLC, with HL-60(TB) leukemia, in the assay with HS 578T breast and in the assay with HT29 colon was more than 100 µM each time. The TGI in the assay on KM12 colon, with MALME-3M melanoma, with MOLT-4 leukemia, with NCI-H23 lung, in the assay with OVCAR-8 ovarian and with RPMI-8226 leukemia was more than 100 µM each time. For the same compound, the TGI in the assay on SK-MEL-2 melanoma, with SNB-75 CNS, in the assay on TK-10 renal and in the assay with UACC-257 melanoma was more than 100 µM in each case.
On to `CC1(O)Oc2ccc3ccccc3c2C=C1C(N)=O` (configuration not stated), for which the TGI in the assay with CAKI-1 renal, in the assay on DU-145 prostate, in the assay with EKVX NSCLC, in the assay on HL-60(TB) leukemia, with HS 578T breast and in the assay on KM12 colon was more than 100 µM throughout. For the same compound, the TGI with MOLT-4 leukemia, in the assay on NCI-H23 lung, with NCI-H460 lung, in the assay with RPMI-8226 leukemia, with RXF 393 renal and with SK-MEL-2 melanoma was more than 100 µM in each case. Also, the TGI in the assay on SNB-75 CNS, in the assay on TK-10 renal and in the assay on UACC-257 melanoma was more than 100 µM each time.
With `Cc1ccc(S(=O)(=O)Nn2c(O)c(C#N)c(-c3ccc(N(C)C)cc3)c(C#N)c2=O)cc1`, the TGI in the assay with BT-549 breast, in the assay on CAKI-1 renal, with EKVX NSCLC, with HL-60(TB) leukemia, with HS 578T breast and in the assay with HT29 colon was more than 50 µM throughout. For the same compound, the TGI with KM12 colon is more than 50 µM; with MALME-3M melanoma, more than 50 µM; in the assay with MOLT-4 leukemia it was more than 50 µM; in the assay on NCI-H460 lung, more than 50 µM; with OVCAR-8 ovarian, more than 50 µM; in the assay with RPMI-8226 leukemia, 43.4 µM. The TGI in the assay with RXF 393 renal, in the assay on SK-MEL-2 melanoma, with SNB-75 CNS, with TK-10 renal and in the assay with UACC-257 melanoma was more than 50 µM each time.
For the compound `N#CC1(C#N)C(c2ccccc2)C=CC(c2ccc([N+](=O)[O-])cc2)C1(C#N)C#N` (configuration not stated), the TGI in the assay on BT-549 breast was 24.3 µM; in the assay on CAKI-1 renal, 13.1 µM; in the assay on DU-145 prostate, 27.3 µM; in the assay with EKVX NSCLC, 28.6 µM; in the assay on HL-60(TB) leukemia, 0.574 µM; with HS 578T breast, more than 59.9 µM. For the same compound, the TGI was more than 38.5 µM in the assay on HT29 colon; 52.5 µM with KM12 colon; 7.1 µM in the assay on MOLT-4 leukemia; 27.4 µM with NCI-H23 lung; more than 100 µM with NCI-H460 lung; 27.5 µM with OVCAR-8 ovarian. The TGI with RPMI-8226 leukemia is more than 25.6 µM; in the assay with SK-MEL-2 melanoma it was 31.6 µM; in the assay on SNB-75 CNS it was 47.7 µM; with TK-10 renal, 13.1 µM; in the assay with UACC-257 melanoma, 30.2 µM.

The values are drawn from PubChem BioAssay (NCI).
